# Like-named read-outs stand apart in the source and are kept apart here.
# Experiments:
# [1] = target: GABA receptor-chloride ionophore complex (GR complex); assay: [35S]TBPS binding modulation assay; settings: for IC50: read-out: IC50, inhibition of [35S]-TBPS binding, +5 μM GABA, in the presence of 5 μM GABA; for Max. Inhib., maximal % of specifically bound [35S]-TBPS displaced: saturating concentrations of test compound
# estrogen receptor = target: T1, estrogen receptor (Bos taurus, UniProt P49884); assay: Inhibition of 3H-estradiol binding to bovine uteral estrogen receptors; settings: read-out: % of inhibition of 3H-estradiol binding, B, competitor 10^-6 M; 0.25 nM 3H-estradiol
# T1 construct: from tissue; host or cells: bovine uterus cytosol
# T1 sequence (P49884 1-596): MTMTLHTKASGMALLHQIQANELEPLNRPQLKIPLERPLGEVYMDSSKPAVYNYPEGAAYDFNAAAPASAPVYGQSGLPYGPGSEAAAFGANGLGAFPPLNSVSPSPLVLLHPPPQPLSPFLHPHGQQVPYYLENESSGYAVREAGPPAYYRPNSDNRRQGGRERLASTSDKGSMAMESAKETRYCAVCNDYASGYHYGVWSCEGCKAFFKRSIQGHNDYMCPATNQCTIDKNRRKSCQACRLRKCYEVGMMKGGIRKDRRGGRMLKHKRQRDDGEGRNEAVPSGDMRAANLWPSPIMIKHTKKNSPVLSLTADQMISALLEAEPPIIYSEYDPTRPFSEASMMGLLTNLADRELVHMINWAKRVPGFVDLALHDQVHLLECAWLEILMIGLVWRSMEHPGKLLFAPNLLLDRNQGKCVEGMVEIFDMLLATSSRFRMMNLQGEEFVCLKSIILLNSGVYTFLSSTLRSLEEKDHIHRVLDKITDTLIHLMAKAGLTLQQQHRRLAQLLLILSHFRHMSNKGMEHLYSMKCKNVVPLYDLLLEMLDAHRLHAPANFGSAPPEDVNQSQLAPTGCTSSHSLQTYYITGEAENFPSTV
# Protocol: The hormonal activity of drugs described herein was further studied through testing their potential estrogenic, progestinic, mineralocorticoid and glucocorticoid activities. These activities were analyzed by monitoring the ability of the drugs to inhibit binding of the steroid hormones to their respective hormone receptors.
# [2] = system: number of light/dark transitions (anxiety); assay: Light/dark transition test; format: in vivo, mice (male N.I.H. Swiss-Webster); settings: 3α-OH-DHP 10, 20, 40 mg/kg; 5α-THDOC 20 mg/kg; diazepam 1.0, 5.0, 10, 20 mg/kg; 20 mg/kg
# Source text: (§1) The light/dark transition test (Crawley and Goodwin, 1980) is based on the observation that rodents naturally tend to explore novel environments, but open, brightly lit arenas are aversive to the rodents and inhibit exploratory behavior (Christmas and Maxwell, 1970; File, 1980). […] Similar to the light/dark transition test, the open-field test measures the antagonism between the tendency to explore a novel environment and the tendency to remain still in an aversive environment (brightly lit arena). […] The open-field test provides a simple, non-punished assessment of the potential anxiolytic properties of novel compounds. Finally, 3α-OH-DHP was tested for anxiolytic properties in a Vogel conflict paradigm. The ability of BZs to attenuate the suppression of behavior by punishment in conflict paradigms is well established (Gellar et al., 1962; Vogel et al., 1971).
# (§2) Male N.I.H. Swiss-Webster mice (Harlan) weighing 15-20 g were used in all experiments. The mice were housed 4/cage in polyethylene cages with sawdust bedding. The colony room was environmentally controlled (22° C.) with a 12 hr. light/dark cycle (0600-1800 hrs.). The mice had free access to food and water. The experiments were run from 0700-1500 hrs. and groups were counterbalanced for time of day effects.
# The method used was previously described by Crawley and Goodwin (1980). The apparatus included a large box (26×33×24 cm) connected to a small box (15×22×14 cm) through an opening (5×6 cm). The large box was brightly lit with a standard 100W light bulb, while the small box was kept dark. Following pretreatment with a test drug, mice were placed in the center of the large box and the number of transitions between the large and small boxes was counted for 10 min. […] During the antagonist studies, CGS-8216 was administered 30 min. prior to the test drug.
# (§3) 2-Hydroxypropyl β-cyclodextrin Diazepam and chlordiazepoxide are available from Sigma, Co. (St. Louis, Mo.). CGS-8216 was obtained from Ciba-Geigy (Summit, N.J.). All drugs were dissolved in 20% β-cyclodextrin in water and sonicated overnight. All drugs were administered intraperitoneally in a volume of 100 μL/20 g. CGS-8216 was administered subcutaneously in a volume of 100 μL/20 g.
# (§4) The vehicle control data were analyzed across test days using an 1-way analysis of variance (ANOVA). […] The dose-response curves were then analyzed using an 1-way ANOVA, followed by Dunnett's t-test for individual comparisons between doses and control. The open-field and habituated locomotor data were analyzed using ANOVA followed by Dunnett's t-test. […] All data is expressed as the mean±S.E.M.
# open-field activity = assay: Open-field activity test; format: in vivo, mice (male N.I.H. Swiss-Webster)
# Source text: as §1, §2
# As a secondary measure of anxiolytic effects, naive mice were placed in the center of a large, brightly lit plexiglass box (42×42×30.5 cm) and the total distance traveled was measured during a 10 min. test period. […] The Digiscan Activity Monitor (Omnitech Electronics, Columbus, Ohio) includes 16 photobeams that surround the box. The activity monitor is linked to a computer through a Digiscan Analyzer (Omnitech Electronics) and the data is analyzed using the Integrated Lab Animal Monitoring System (Omnitech Electronics). The mice were administered drugs as described for light/dark transitions.
# as §3, §4
# [3] = system: metrazol-induced convulsions; parameters: key: NP: no protection; settings: 1982, cited from earlier work
# [4] = 1982, cited from earlier work
# [5] = system: strychnine-induced convulsions; settings: 1982, cited from earlier work
# [6] = system: (+)bicuculline-induced seizures; parameters: key: NP: no protection; settings: 1982, cited from earlier work
# [7] = system: picrotoxin-induced convulsions; parameters: key: NP: no protection; settings: 1982, cited from earlier work
# [8] = system: maximal electroshock seizure; settings: 1982, cited from earlier work
Structure (SMILES),IC50 [1] [nM],"Max. Inhib., maximal % of specifically bound [35S]-TBPS displaced [1] [%]",ED50 MTZ (metrazol) ([3]; Swinyard & Woodhead),LD50 ([4]; Swinyard & Woodhead) [mg/kg],ED50 STR (strychnine) ([5]; Swinyard & Woodhead) [mg/kg],ED50 BIC (bicuculline) ([6]; Swinyard & Woodhead),ED50 PICRO (picrotoxin) ([7]; Swinyard & Woodhead),ED50 MES (maximal electroshock) ([8]; Swinyard & Woodhead) [mg/kg],further results
"CC(C)(O)[C@H]1CC[C@H]2[C@@H]3CC[C@H]4C[C@H](O)CC[C@]4(C)[C@H]3CC[C@]12C [3α,20-dihydroxy-20-methyl-5α-pregnane]",65,45,–,–,–,–,–,–,inhibition at 1 µM (estrogen receptor): 0%
"CC(=O)[C@H]1CC[C@H]2[C@@H]3CC[C@H]4C[C@@H](O)CC[C@]4(C)[C@H]3CC[C@]12C [Example 3β-OH-DHP, 3β-hydroxy-5α-pregnan-20-one, reference compound]",> 100000,33,–,–,–,–,–,–,"IC50, inhibition of [35S]-TBPS binding, No GABA ([1]; washed synaptoneurosomes, no GABA added): Inactive; effect on number of light/dark transitions (words) [2]: did not produce an anxiolytic effect; total distance, open-field (open-field activity; 20 mg/kg, 10 min, vehicle 2004.6 ± 134.6): 1979.8 ± 174.5 cm; effect on open-field activity (open-field activity; steroids 20 mg/kg, diazepam 10 mg/kg): did not show any effect"
CCC1(c2ccccc2)C(=O)NC(=O)NC1=O [Phenobarbital],–,–,13 mg/kg,265,95,38 mg/kg,28 mg/kg,22,–
O=C1NC(=O)C(c2ccccc2)(c2ccccc2)N1 [Phenytoin],–,–,NP,230,–,NP,NP,–,"Maximum protection, STR (strychnine) ([5]; at 55-100 mg/kg, Swinyard & Woodhead): 50%"
NC(=O)CCC/N=C(\c1ccc(Cl)cc1)c1cc(F)ccc1O [Progabide],–,–,–,–,–,–,–,–,"ED50 MTZ (metrazol) ([3]; convulsant i.v., Worms et al.): 30 mg/kg; LD50 ([4]; Worms et al.): 3000 mg/kg; ED50 STR (strychnine) ([5]; convulsant i.v., Worms et al.): 75 mg/kg; ED50 BIC (bicuculline) ([6]; convulsant i.v., Worms et al.): 30 mg/kg; ED50 PICRO (picrotoxin) ([7]; convulsant i.v., Worms et al.): 105 mg/kg; ED50 MES (maximal electroshock) ([8]; Worms et al.): 75 mg/kg"
CCCC(CCC)C(=O)O [Valproate],–,–,149 mg/kg,1105,293,360 mg/kg,387 mg/kg,272,–

# From patent publication US5232917A, “Methods, compositions, and compounds for allosteric modulation of the GABA receptor by members of the androstane and pregnane series” (priority 1991, dated 1993)
